In ChEMBL document CHEMBL3407332, “An efficient synthesis of new caffeine-based chalcones, pyrazolines and pyrazolo[3,4-b][1,4]diazepines as potential antimalarial, antitrypanosomal and antileishmanial agents” (Eur J Med Chem, 2015):
In brackets after ≈: the same amount, converted by molar mass.

Columns and labels:
[1] = tested on: Plasmodium falciparum; assay: Antimalarial activity against asynchronic culture of Plasmodium falciparum NF54 assessed as parasite growth inhibition at 20 ug/mL after 48 hrs by ethidium bromide staining-based spectrofluorometric analysis relative to control; format: functional; conditions: NF54, 48 h, read-out: GI
[2] = Cytotoxicity against human U937 cells assessed as cell viability after 72 hrs by MTT assay; format: cell-based, U-937; conditions: read-out: LC50
[3] = tested on: Trypanosoma cruzi; assay: Antitrypanosomal activity against amastigote stage of Trypanosoma cruzi Tulahuen infected in human U937 cells assessed as parasite growth inhibition at 20 ug/mL after 72 hrs by beta-galactosidase reporter gene assay relative to control; format: functional; conditions: U-937, 72 h, read-out: GI
[4] = tested on: Leishmania panamensis; assay: Antileishmanial activity against amastigote stage of Leishmania panamensis MHOM/CO/87/UA140-EpiR-GFP infected in human U937 cells assessed as parasite growth inhibition after 72 hrs by flow cytometric analysis; format: functional, organism-based; conditions: MHOM/CO/87/UA140, U-937, 72 h
[5] = tested on: Leishmania panamensis; assay: Antileishmanial activity against amastigote stage of Leishmania panamensis MHOM/CO/87/UA140-EpiR-GFP infected in human U937 cells assessed as parasite growth inhibition at 20 ug/mL after 72 hrs by flow cytometric analysis relative to control; format: functional; conditions: MHOM/CO/87/UA140, U-937, 72 h, read-out: GI
[6] = Hemolytic activity in human RBC after 48 hrs by spectrophotometric analysis; format: ADME, cell-based, Erythrocyte; conditions: human red blood cells (RBC), read-out: LC50
[7] = tested on: Plasmodium falciparum; assay: Antimalarial activity against asynchronic culture of Plasmodium falciparum NF54 assessed as parasite growth inhibition after 48 hrs by ethidium bromide staining-based spectrofluorometric analysis; format: functional, organism-based; conditions: NF54, 48 h
[8] = tested on: Trypanosoma cruzi; assay: Antitrypanosomal activity against amastigote stage of Trypanosoma cruzi Tulahuen infected in human U937 cells assessed as parasite growth inhibition after 72 hrs by beta-galactosidase reporter gene assay; format: functional, organism-based; conditions: U-937, 72 h

| SMILES | inhibition of growth at 20 µg/mL [1] | CC50 at 72 h [2] | inhibition of growth at 20 µg/mL [3] | EC50 [4] | inhibition of growth at 20 µg/mL [5] | HC50 at 48 h [6] | IC50 [7] | EC50 [8] |
| --- | --- | --- | --- | --- | --- | --- | --- | --- |
| COc1ccc(C2=NN(C(C)=O)C(c3ccc(Oc4nc5c(c(=O)n(C)c(=O)n5C)n4C)c(OC)c3)C2)cc1 (centres undefined) | 11.6% | > 200 µg/mL | 0% | 14.6 µg/mL (≈ 27.4 µM) | 76.2% |  |  |  |
| COc1cc(C2CC(c3cc(OC)c(OC)c(OC)c3)=NN2C(C)=O)ccc1Oc1nc2c(c(=O)n(C)c(=O)n2C)n1C (centres undefined) | 46.3% | > 200 µg/mL | 15.8% | 12.6 µg/mL (≈ 21.3 µM) | 87.6% |  |  |  |
| COc1cc(C2CC(c3ccccc3)=NN2C=O)ccc1Oc1nc2c(c(=O)n(C)c(=O)n2C)n1C (centres undefined) | 30.8% | > 200 µg/mL | 0% |  | 53.1% |  |  |  |
| COc1cc(C2CC(c3ccc(Cl)cc3)=NN2C=O)ccc1Oc1nc2c(c(=O)n(C)c(=O)n2C)n1C (centres undefined) | 23.9% | > 200 µg/mL | 21.1% |  | 0% |  |  |  |
| COc1cc(C2CC(c3ccc(Br)cc3)=NN2C=O)ccc1Oc1nc2c(c(=O)n(C)c(=O)n2C)n1C (centres undefined) | 46.9% | > 200 µg/mL | 36.9% | 16.1 µg/mL (≈ 28.4 µM) | 70.4% |  |  |  |
| COc1cc(C2CC(c3ccc(C)cc3)=NN2C=O)ccc1Oc1nc2c(c(=O)n(C)c(=O)n2C)n1C (centres undefined) | 37.1% | > 200 µg/mL | 0% |  | 0% |  |  |  |
| COc1ccc(C2=NN(C=O)C(c3ccc(Oc4nc5c(c(=O)n(C)c(=O)n5C)n4C)c(OC)c3)C2)cc1 (centres undefined) | 41.7% | 38.7 µg/mL (≈ 74.6 µM) | 27% |  | 48.1% |  |  |  |
| COc1cc(C2CC(c3cc(OC)c(OC)c(OC)c3)=NN2C=O)ccc1Oc1nc2c(c(=O)n(C)c(=O)n2C)n1C (centres undefined) | 29.5% | > 200 µg/mL | 9.9% |  | 30.1% |  |  |  |
| COc1cc(C2CC(c3ccccc3)=Nc3c(C)nn(-c4ccccc4)c3N2)ccc1Oc1nc2c(c(=O)n(C)c(=O)n2C)n1C (centres undefined) | 85.9% | > 200 µg/mL | 15.7% |  | 0% | > 200 µg/mL | 13.3 µg/mL (≈ 21.6 µM) |  |
| COc1cc(C2CC(c3ccc(Cl)cc3)=Nc3c(C)nn(-c4ccccc4)c3N2)ccc1Oc1nc2c(c(=O)n(C)c(=O)n2C)n1C (centres undefined) | 80.3% | > 200 µg/mL | 0% |  | 0% | > 200 µg/mL | 14.1 µg/mL (≈ 21.7 µM) |  |
| COc1cc(C2CC(c3ccc(F)cc3)=Nc3c(C)nn(-c4ccccc4)c3N2)ccc1Oc1nc2c(c(=O)n(C)c(=O)n2C)n1C (centres undefined) | 91.7% | > 200 µg/mL | 23.5% |  | 0% | > 200 µg/mL | 12.5 µg/mL (≈ 19.7 µM) |  |
| COc1cc(C2CC(c3ccc(C)cc3)=Nc3c(C)nn(-c4ccccc4)c3N2)ccc1Oc1nc2c(c(=O)n(C)c(=O)n2C)n1C (centres undefined) | 93.5% | > 200 µg/mL | 37.7% |  | 0% | > 200 µg/mL | 12.3 µg/mL (≈ 19.5 µM) |  |
| COc1ccc(C2=Nc3c(C)nn(-c4ccccc4)c3NC(c3ccc(Oc4nc5c(c(=O)n(C)c(=O)n5C)n4C)c(OC)c3)C2)cc1 (centres undefined) | 84.4% | > 200 µg/mL | 26.9% |  | 0% | > 200 µg/mL | 13.1 µg/mL (≈ 20.3 µM) |  |
| COc1cc(C2CC(c3cc(OC)c(OC)c(OC)c3)=Nc3c(C)nn(-c4ccccc4)c3N2)ccc1Oc1nc2c(c(=O)n(C)c(=O)n2C)n1C (centres undefined) | 94.2% | > 200 µg/mL | 56.6% |  | 0% | > 200 µg/mL | 11.3 µg/mL (≈ 16 µM) | 20.3 µg/mL (≈ 28.7 µM) |
| C[C@@H]1[C@H](O)[C@@H](C)/C=C/C=C/C=C/C=C/C=C/C=C/C=C/[C@H](O[C@@H]2O[C@H](C)[C@@H](O)[C@H](N)[C@@H]2O)C[C@@H]2O[C@](O)(C[C@@H](O)C[C@@H](O)[C@H](O)CC[C@@H](O)C[C@@H](O)CC(=O)O[C@H]1C)C[C@H](O)[C@H]2C(=O)O [AMPHOTERICIN B] |  | 36 µg/mL (≈ 39 µM) |  | 0.05 µg/mL (≈ 0.0541 µM) | 100% |  |  |  |
| O=C(Cn1ccnc1[N+](=O)[O-])NCc1ccccc1 [BENZNIDAZOLE] |  | 180 µg/mL (≈ 692 µM) | 100% |  |  |  |  | 10.7 µg/mL (≈ 41.1 µM) |
| CCN(CC)CCCC(C)Nc1ccnc2cc(Cl)ccc12 (centres undefined) [CHLOROQUINE] | 58.2% |  |  |  |  |  |  |  |
